Assay results published in patent EP0375414B1, “Substituted guanidine and amidine compounds, their production and fungicidal use” (DowElanco, priority 1988, dated 1990).

Legend:
Erysiphe graminis Hordei = assay: In vivo screen, Erysiphe graminis Hordei on barley; design: species or system Barley cv. Golden Promise; settings: 400 ppm sprayed to run off, inoculated 24 hours later, barley at 1 leaf stage, scored after 7 days, percent control vs acetone-water control plants
Procedure: Barley cv. Golden Promise is used as the host plant. Seeds are sown 8 per 3 in. […] After a week symptoms are recorded. […] The percent control is then recorded.

Puccinia recondita = assay: In vivo screen, Puccinia recondita on wheat; design: species or system Wheat cv. Tonic; settings: 400 ppm sprayed to run off, inoculated 24 hours later, wheat seedlings, incubated 4 days, percent control vs acetone-water control plants
Procedure: Wheat cv. Tonic is used as the host plant. […] The tray is 60 cm x 30 cm.
Percent control is then recorded.

Host Plants = assay: Phytotoxicity to host plants in the in vivo screen; settings: 400 ppm sprayed to run off, host plants of the in vivo screen
Procedure: For each compound 3 replicate plants per pathogen at the 1 leaf stage are sprayed to run off. The plants are allowed to dry at room temperature for 24 hours prior to inoculation.
Untreated control plants and plants sprayed with 10 percent acetone-water or water alone (as required) are included for each pathogen.
Barley cv. Golden Promise is used as the host plant. Seeds are sown 8 per 3 in. (7.5 cm) pot and allowed to germinate and the plants are treated when they are approximately 2 weeks old. Spores are blown onto the test plants from the stock plants, which are then incubated at 20°C, relative humidity 70 percent for 7 days. After a week symptoms are recorded. The percent infection is scored from 3 replicate plants and expressed as a percent of the infection on the acetone-water control plants. The percent control is then recorded.
Wheat cv. Tonic is used as the host plant. Seeds are sown 1 cm deep in 4 rows per plastic tray. The tray is 60 cm x 30 cm. Seedlings grown to the 1-2 leaf stage are then inoculated. Into 100 mL of distilled water is placed 0.05 g of uredospores with a melting agent. This solution is sprayed onto the seedlings leaving a fine coverage on the leaves. The plants are then incubated with 100 percent relative humidity at 15-20°C for 4 days.

SMILES	Percent Efficacy, Erysiphe graminis (Erysiphe graminis Hordei) [%]	Percent Efficacy, Puccinia recondita (Puccinia recondita) [%]	Percent Phytotoxicity to Host Plants (Host Plants) [%]
CC(=O)O.C[C@H]1[C@@H](c2ccc(C(C)(C)C)cc2)CCN1C1=NCCCN1 (relative stereo) [Example 1, Cis N-(tetrahydropyrimidin-2-yl)-2-methyl-3-(4-t-butylphenyl)pyrrolidinium acetate]	100	0	0
CC(=O)O.C[C@H]1[C@H](c2ccc(C(C)(C)C)cc2)CCN1C1=NCCCN1 (relative stereo) [Example 2, trans N-(tetrahydropyrimidin-2-yl)-2-methyl-3-(4-t-butylphenyl)pyrrolidine acetate]	83	0	0
C[C@H]1[C@@H](c2ccc(C(C)(C)C)cc2)CCN1C1=NCCCN1.Cl (relative stereo) [Example 3, Cis N-(tetrahydropyrimidin-2-yl)-2-methyl-3--(4-t-butylphenyl)pyrrolidinium chloride]	14	100	–
C[C@H]1[C@H](c2ccc(C(C)(C)C)cc2)CCN1C1=NCCCN1.Cl (relative stereo) [Example 4, Trans N-(tetrahydropyrimidin-2-yl)-2-methyl,3-(4-t-butylphenyl)pyrrolidinium chloride]	87	66	–
CC1CC(C)NC(N2CC[C@H](c3ccc(C(C)(C)C)cc3)[C@@H]2C)=N1.Cl (relative stereo) [Example 5, Cis N-(4,6-dimethyltetrahydropyrimidin-2-yl)-2-methyl-3-(4-t-butylphenyl)pyrrolidinium chloride]	52	100	0
CC1CC(C)NC(N2CC[C@@H](c3ccc(C(C)(C)C)cc3)[C@@H]2C)=N1.Cl (relative stereo) [Example 6, Trans N-(4,6-dimethyltetrahydropyrimidin-2-yl)-2-methyl-3-(4-t-butylphenyl)pyrrolidinium chloride]	100	0	0
CCCCCCCC[C@H]1CCN(C2=NCCCN2)[C@H]1C.Cl (relative stereo) [Example 7, Cis N-(tetrahydropyrimidin-2-yl)-2-methyl-3-octyl pyrrolidinium chloride]	79	0	–
